Experimental data as given in publication PMC7344333 (Journal of medicinal chemistry, 2019).
Values belong to the molecule of their own block, whether it stands above or below them.

Assays:
[1] = tested on: LPA1; details: read-out: EC50 at LPA1; cited from earlier work
[2] = tested on: LPA2; details: read-out: EC50 at LPA2; cited from earlier work
[3] = biological target: LPA1 receptor (Homo sapiens, UniProt Q92633); assay: Ca2+ mobilization assay in LPA1 stably transfected RH7777 cells; format: cell-based; details: for LPA1 agonist activity (in words): highest concentration tested 10 μM
[4] = tested on: mice; assay: open field test, exploratory and locomotor activity; format: in vivo, mouse; details: at the selected dose (10 mg/kg i.p.)
[5] = stability studies in PBS and cellular culture medium; format: physicochemical; details: up to 8 hours at 37 °C
[6] = tested on: mice; assay: acetic acid-induced writhing assay; format: in vivo, mouse
[7] = tested on: B103 neuroblastoma cells overexpressing EGFP-LPA1 receptor; assay: neurite retraction assay; format: cell-based; details: 15 minutes treatment
[8] = tested on: DRG neurons (nociceptors); assay: multielectrode array; format: cell-based, rat; details: 10 μM, two consecutive pulses
[9] = tested on: B103 neuroblastoma cells overexpressing LPA1 receptor; assay: transwell migration assay; format: cell-based; details: 1 μM in lower chamber, 5 h
[10] = tested on: dorsal root ganglia (DRG) neurons; assay: calcium microfluorography in primary DRG sensory neurons; format: cell-based, rat; details: two repetitive applications of 10 μM
[11] = tested on: mice with SNI; assay: spared nerve injury; format: in vivo, mouse; details: 10 mg/kg i.p. daily; 3, 10 and 21 days post-surgery, vs vehicle
[12] = tested on: EGFP-LPA1 fusion receptor; assay: LPA1 receptor internalization assay; details: 1 μM

LPA1 receptor, sequence (Q92633 whole entry): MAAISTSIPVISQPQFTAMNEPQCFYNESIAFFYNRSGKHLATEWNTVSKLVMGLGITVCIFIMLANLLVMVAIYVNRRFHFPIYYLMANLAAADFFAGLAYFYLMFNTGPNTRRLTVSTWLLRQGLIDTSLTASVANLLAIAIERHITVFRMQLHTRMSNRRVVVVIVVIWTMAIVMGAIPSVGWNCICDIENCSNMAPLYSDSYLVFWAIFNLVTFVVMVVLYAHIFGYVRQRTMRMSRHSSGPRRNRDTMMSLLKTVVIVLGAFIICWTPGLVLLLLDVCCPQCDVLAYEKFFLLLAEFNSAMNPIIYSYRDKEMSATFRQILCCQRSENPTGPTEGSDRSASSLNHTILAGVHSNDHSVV

Structure (SMILES): CCCCCCCC/C=C\CCCCCCCC(=O)NCCC(=O)P(=O)(O)O [Compound 2]
EC50 [1]: 221 nM | EC50 [2]: 1090 nM

Structure (SMILES): CCCCCCCCCC/C=C\CCCCCCCC(=O)OC[C@@H](O)COP(=O)(O)O [Compound 16, (2R)-2-Hydroxy-3-(phosphonooxy)propyl (9Z)-icos-9-enoate]
LPA1 agonist activity (in words) [3]: inactive

Structure (SMILES): O=C(CCCCCCCc1ccccc1)OC[C@@H](O)COP(=O)(O)O [Compound 19, (2R)-2-Hydroxy-3-(phosphonooxy)propyl 8-phenyloctanoate]
LPA1 agonist activity (in words) [3]: inactive

Continued, in another order:

compound remaining (stability) ([5]; PBS): > 85% | compound remaining (stability) ([5]; culture media): > 85%
Structure (SMILES): O=C(CCCCCCCCCc1ccccc1)O[C@H](CBr)COP(=O)(O)O [Compound (S)-17, (2S)-1-Bromo-3-(phosphonooxy)propan-2-yl 10-phenyldecanoate]
exploratory or locomotor activity [4]: did not induce any alteration in the exploratory or locomotor activity | number of writhes after acute single administration [6]: increased the number of writhes in the first minutes after the administration | neurite retraction [7]: induced neurite retraction | neuronal firing of action potentials on repeated application [8]: provoked the firing of action potentials that were attenuated upon a second instillation | cell migration [9]: induced cell migration | Ca2+ response on repeated application [10]: induced a reduction of the Ca^2+ responses | mechanical nociceptive threshold [11]: significantly superior compared to vehicle-treated mice

LPA1 internalization [12]: the receptor is internalized | Ca2+ response relative to 10 μM ionomycin ([3]; 10 μM LPA, positive control): 30–33% | Emax at 10 µM ([3]; RH7777): 100%
Structure (SMILES): CCCCCCCC/C=C\CCCCCCCC(=O)OC[C@@H](O)COP(=O)(O)O [LPA, 1-oleoyl-sn-glycerol-3-phosphate, reference compound]
neuronal firing of action potentials on repeated application [8]: provoked the firing of action potentials that were attenuated upon a second instillation | Ca2+ response on repeated application [10]: the Ca^2+ response is notably reduced in a second LPA application
